Data as given in paper PMC12384620, “Hit-to-Lead Studies of Pyrazinylpiperazines against Visceral Leishmaniasis: Pharmacokinetic Profile and In Vivo Efficacy of Potent Compounds against Leishmania infantum” (ACS Pharmacology & Translational Science, 2025).

Key:
L. infantum = assay: Antileishmanial activity against L. infantum amastigotes in THP-1 macrophages; assay type: cell-based; conditions: Leishmania infantum; growth of L. infantum in THP-1 macrophages, 72 h
Procedure: The in vitro anti-L. infantum activity (IC50) of each compound was evaluated on THP-1 cells (human leukemia monocytic cell line) infected with L. infantum promastigotes, and the in vitro cytotoxicity (CC50) was determined over the THP-1 cell line. The selectivity index (SI) was calculated as the ratio of the CC50 value determined in the cytotoxicity assay, divided by the IC50 value determined in the antileishmanial activity assay.
Cells derived from the human monocytic strain THP-1 were cultured in complete Rowell Park Memorial Institute (RPMI)-1640 medium (supplemented with 10% fetal bovine serum, 100 U/mL penicillin, and 100 μg/mL streptomycin). Monocytes were differentiated into macrophages by the addition of 20 ng/mL phorbol myristate acetate (PMA). After 72 h, the macrophages (5 × 10^4), in black 96-well microtiter plates (Corning Incorporated, Corning, NY), were infected with Leishmania (Leishmania) infantum (MHOM/BR/1974/PP75) promastigotes transfected with gene tdTomato, on the second day of the stationary phase (20 parasites per macrophage) for 4 h. […] The IC50 values were determined by nonlinear regression using a variable slope model (log(concentration) vs growth inhibition) with the GraphPadPrism v8.2.0 (CA, USA) software. Controls with uninfected cells, untreated infected cells, and infected cells treated with amphotericin B at 0.25 μM (positive control) or DMSO 1% were used. Quadruplicates were run on the same plate, and the experiments were repeated at least once.

L. braziliensis = assay: Inhibition of growth of L. braziliensis in THP-1 macrophages; assay type: cell-based; conditions: Leishmania braziliensis
Description: 1 In Vitro Antileishmanial Potency, Selectivity Index, and ADME Properties of Compounds 1 – 6 | column: L. braziliensis IC50 (μM)^b (SI)^b

[1] = PAMPA gastrointestinal tract permeability; assay type: in vitro ADME; conditions: for Papp at 8 h, 0.5 mM: PAMPA-GI, read-out: GI Pe
Procedure: A 10 mM solution of each compound in DMSO was prepared and subsequently homogenized in a 5 mL flask with 4.75 mL PBS (pH 6.6) (10 mM). […] 180 μL of a PBS (pH 7.4)/DMSO (95:5) solution were then added to the wells of a 96-well receiver plate, and 5 μL of a L-α-phosphatidylcholine solution (20 mg/mL in dodecane) to the wells of a 96-well donor plate. After 5 min, 180 μL of the solutions containing each compound were added to the wells of the donor plate, in triplicate, and the donor plate was carefully placed over the receiver plate in a “sandwich-like” system, which was left stirring (50 rpm) for 8 h at rt in a sealed vessel containing 10 mL PBS (pH 7.4). Afterward, the donor plate was removed, and the content of the receiver plate was transferred to a UV reading plate, which was read using a microplate reader (SpectraMax 5 – Molecular Devices). A reference sample for the internal correction of the microplate reader was prepared using 180 μL of the PBS (pH 7.4)/DMSO (95:5) solution (adapted from refs and ). The optical density values obtained from the content of the receiver plate were compared with the ones obtained from readings performed with the initial solutions containing each compound, before their addition to the donor plate. […] The optical density values from the receptor plate were compared to those from experimental controls to determine the F a value for each compound, using Microsoft Excel.

[2] = PAMPA blood-brain barrier permeability; assay type: in vitro ADME; conditions: for BBB permeation class: PAMPA-BBB classification; for Papp at 0.2 mg/mL: PAMPA-BBB, pH 7.4, read-out: BBB Pe
Procedure: One mg of each compound was solubilized in ethanol (1 mL) in a 5 mL flask, and an additional 500 μL ethanol and 3.5 mL PBS buffer (pH 7.4) were added to this solution. […] 180 μL of a PBS (pH 7.4)/ethanol (70:30) solution were then added to the wells of a 96-well receiver plate, and 5 μL of a porcine brain lipid solution (20 mg/mL in dodecane) to the wells of a 96-well donor plate. […] Afterward, the donor plate was removed, and the content of the receiver plate was transferred to a UV reading plate, which was read using a microplate reader (SpectraMax 5 – Molecular Devices). A reference sample for the internal correction of the microplate reader was prepared using 180 μL of the PBS (pH 7.4)/ethanol (70:30) solution (adapted from ref ). The optical density values obtained from the content of the receiver plate were compared with the ones obtained from readings performed with the initial solutions containing each compound, before their addition to the donor plate. […] The optical density values for the experimental controls were used to determine the equation of the linear regression (optical density vs P e ), which allowed the determination of the P e value of each compound from the optical density values obtained from the receiver plate, using an in-house Microsoft Excel spreadsheet.

[3] = Metabolic stability in mouse liver microsomes; assay type: in vitro ADME; conditions: pH 7.4, MLM, with NADPH cofactor; for microsomal CLint at 5 μM: read-out: Clint, intrinsic clearance; for half-life at 5 μM: read-out: t1/2, microsomal half-life
Procedure: To a microcentrifuge tube was added 1 mg/mL Mouse Liver Microsome (MLM), a NADPH generating system consisting of 1 mM NADP+, 1.5 mM MgCl2, 3.5 mM glucose-6-phosphate and 0.5 U/mL glucose-6-phosphate dehydrogenase, and phosphate buffer (pH 7.4) in a sufficient amount for a total volume of […]. After a 15 min preincubation at 37 °C in a water bath, the enzymatic reactions were started by adding 2 μL of a […] stock solution of each compound to be assessed, reaching a final concentration of 5 μM in the tested compound. , The samples were further incubated at 37 °C under stirring (30 rpm) for predetermined periods (0, 15, 30, 45, and 60 min), and 500 μL chilled MeOH and 500 μL chilled acetonitrile were added before the samples were homogenized and left standing in an ice bath to accelerate protein precipitation. The resulting mixture was centrifugated at 13000 rpm for 15 min at 4 °C, the organic layer was extracted and 2 μL internal standard (clonazepam 5 μM) was added. Finally, the samples were filtered through a PVDF filter (Millex 0.22 μm x 13 mm) and analyzed by HPLC-PDA. ,

[4] = system: L. infantum promastigotes; assay: Flow cytometric cell cycle analysis (PI); assay type: cell-based, Leishmania infantum; conditions: 24 h, 0.5x, 1x, 2x IC50, PI
Procedure: Then, the cells were collected, washed twice with 1 × PBS, and fixed in 70% ethanol at 4 °C for 24 h. The fixed parasites were then washed with 1 × PBS and the pellet was treated with 500 μL of RNase A (20 mg/mL) and incubated at 37 °C for 1 h. Subsequently, the parasites were stained with 10 μg/mL propidium iodide (PI) in the dark for 20 min. Cell cycle distribution, determining the percentage of cells in G0, G1, S, and G2/M phases, was analyzed using an Accuri C5 BD flow cytometer. The histograms presented are representative of results obtained from three independent experiments.

[5] = system: L. infantum::tdTomato intracellular amastigotes; assay: Synergism between 2 and Sb^III against intracellular L. infantum amastigotes; assay type: cell-based, Leishmania infantum; conditions: compounds tested separately, 72 h; read-out: IC50 against intracellular amastigotes of L. infantum
Procedure: Cells derived from the human monocytic strain THP-1 were cultured in complete Rowell Park Memorial Institute (RPMI)-1640 medium (supplemented with 10% fetal bovine serum, 100 U/mL penicillin, and 100 μg/mL streptomycin). Monocytes were differentiated into macrophages by the addition of 20 ng/mL phorbol myristate acetate (PMA). After 72 h, the macrophages (5 × 10^4), in black 96-well microtiter plates (Corning Incorporated, Corning, NY), were infected with Leishmania (Leishmania) infantum (MHOM/BR/1974/PP75) promastigotes expressing red fluorescence protein on the second day of the stationary phase (20 parasites per macrophage) for 4 h. […] To investigate the possibility of synergism between Sb^III and compound 2, […] different concentrations of these drugs were used (1.0, 0.5, 0.2, 0.1, and 0.05 μg/mL), the solutions of Sb^III and 2 being prepared and diluted the day of the assay. The compounds were tested separately and in combination. […] The EC50 values were determined by nonlinear regression using a Variable slope model (log(concentration) vs growth inhibition) with the GraphPadPrism v8.2.0 (CA, USA) software. By normalizing the data as a fractional response, it was possible to perform the calculation using a Bayesian model. The results were compared to each other to determine whether the combination of compounds has a synergistic, antagonistic or additive effect. Controls with uninfected cells, untreated infected cells, infected cells treated with amphotericin B at 0.25 μM (positive control) or DMSO 1% were used. Quadruplicates were run on the same plate, and the experiments were repeated at least once.

L. infantum::tdTomato = assay type: in vivo, mouse; conditions: 500 mg/kg/day i.p., 10 days
Procedure: BALB/c mice (male, 6 to 8 weeks old, 18 to 20 g) were inoculated intravenously (tail vein) with 2 × 10^7 late-log-phase L. infantum promastigotes from Li::tdTomato lines, and randomly assigned into one of the four treatment groups (six mice per group). After 7 days of infection, […] was administered intraperitoneally in a single dose 500 mg/kg/day meglumine antimoniate (Glucantime, Sanofi Medley), both groups treated with 2 received two daily intraperitoneal injections totaling either 50 mg/kg/day or 100 mg/kg/day of 2, and the control group was administered the vehicle solution. For the intraperitoneal injection, 2 was formulated as follows: a stock solution of 2 in DMSO (100 mg/mL) was prepared daily, and a solution of 70% PBS1X, 20% PEG 400 (Polyethylene Glycol 400, Sigma-Aldrich), 0.16% Tween 80 and 10% of 2 (from the stock solution) was prepared. The control group was also administered this solution, replacing 2 with 10% DMSO. All mice were euthanized 3 days after the end of the treatment, and the liver and spleen of each animal were collected.
The number of viable parasites in each organ was determined using a quantitative limiting dilution assay. Briefly, the organs were macerated using an Ultra-Turrax disperser (IKA-Werke GmbH & Co. KG., Staufen, Germany), and a tissue homogenate was obtained with 1 mL of M199 medium. Each tissue homogenate was sequentially diluted (10-fold) in 96-well flat-bottom microtiter black plates and incubated at 26 °C for 10 days. The wells containing motile promastigotes were identified with an inverted microscope (Axiovert 25, Zeiss), and the parasite burden was determined from the highest dilution at which promastigotes had grown after 10 days of incubation.

Compound | IC50 (L. infantum) [µM] | IC50 (L. braziliensis) [µM] | Fa, fraction absorbed (GI) [1] [%] | BBB permeation class [2] | Papp at 0.2 mg/mL [2] [×10⁻⁶ cm/s] | Papp at 8 h, 0.5 mM [1] [×10⁻⁶ cm/s] | microsomal CLint at 5 μM [3] [µL/min/mg] | half-life at 5 μM [3] [h] | effect on cell cycle progression [4] | IC50 [5] [µM] | parasite burden in spleen and liver (L. infantum::tdTomato)
C[C@@H]1[C@H](O)[C@@H](C)/C=C/C=C/C=C/C=C/C=C/C=C/C=C/[C@H](O[C@@H]2O[C@H](C)[C@@H](O)[C@H](N)[C@@H]2O)C[C@@H]2O[C@](O)(C[C@@H](O)C[C@@H](O)[C@H](O)CC[C@@H](O)C[C@@H](O)CC(=O)O[C@H]1C)C[C@H](O)[C@H]2C(=O)O [AmB, Amphotericin B, reference compound] | 0.3 | 0.1 |  |  |  |  |  |  |  |  | 
CC(C)NCC(O)COc1ccc(CC(N)=O)cc1 (stereo not drawn) [Atenolol, reference compound] |  |  | 1.70 |  |  |  |  |  |  |  | 
COc1ccc(C(=O)N2CCN(c3cnccn3)CC2)cc1 [Compound 3, (4-Methoxyphenyl)(4-(pyrazin-2-yl)piperazin-1-yl)methanone] | 4.5 ± 0.7 | 10.1 ± 2.8 | 99.90 | CNS± (CNS±: uncertain BBB permeation, 2.0 < P e (10^–6 cm/s) < 4.0) | 2.21 | 18.2 | 0.925 | 3.12 |  |  | 
Nc1ccc(C(=O)N2CCN(c3cnccn3)CC2)cn1 [Compound 4, (6-Aminopyridin-3-yl)(4-(pyrazin-2-yl)piperazin-1-yl)methanone] | 5.1 ± 2.1 | 11.9 ± 1.1 | 99.91 |  | 1.02 | 18.4 | 0.675 | 4.28 |  |  | 
O=C(c1ccc2cc(O)ccc2c1)N1CCN(c2cnccn2)CC1 [Compound 5, (6-Hydroxynaphthalen-2-yl)(4-(pyrazin-2-yl)piperazin-1-yl)methanone] | 3.3 ± 2.7 | 2.6 ± 0.2 | 45.70 |  | 0.96 | 1.61 | 0.8 | 3.61 |  |  | 
O=C(c1cccc(O)c1O)N1CCN(c2cnccn2)CC1 [Compound 6, (2,3-Dihydroxyphenyl)(4-(pyrazin-2-yl)piperazin-1-yl)methanone] | 2.8 ± 1.1 | 0.2 ± 0.2 | 86.26 | CNS+ (CNS+: high BBB permeation, P e (10^–6 cm/s) > 4.0) | 4.51 | 5.22 | 4.2 | 0.688 |  |  | 
CCCCCCCCCCCCCCCCOP(=O)([O-])OCC[N+](C)(C)C [Miltefosine, miltefosine, reference compound] |  |  |  |  |  |  |  |  | same pattern of cell cycle arrest |  | 
[Sb+3] [Sb^III, reference compound] |  |  |  |  |  |  |  |  |  | 2.4 ± 0.47 | 
meglumine antimoniate [reference compound] |  |  |  |  |  |  |  |  |  |  | almost completely eradicated
